Test results published in ChEMBL document CHEMBL3044741, “Synthesis of novel biologically active methylene derivatives of sydnones” (Med Chem Res, 2013).
Converted amounts (≈) assume the structure as drawn.

Key:
Format in all cases: functional
Streptococcus pyogenes [1] = experiment: Antibacterial activity against Streptococcus pyogenes MTCC 442 at 250 ug/ml after 24 hrs by Kirby-Bauer method; conditions: MTCC 442, 24 h, read-out: IZ
RXF 393 = experiment: Cytotoxicity against human RXF393 assessed as cell growth at high concentration
Malme-3M = experiment: Cytotoxicity against human MALME-3M assessed as cell growth at high concentration
NCI-H460 = experiment: Cytotoxicity against human NCI-H460 assessed as cell growth at high concentration
U-251 = experiment: Cytotoxicity against human U251 assessed as cell growth at high concentration
DU-145 = experiment: Cytotoxicity against human DU145 assessed as cell growth at high concentration
NCI-H23 = experiment: Cytotoxicity against human NCI-H23 assessed as cell growth at high concentration
UO-31 = experiment: Cytotoxicity against human UO31 assessed as cell growth at high concentration
OVCAR-4 = experiment: Cytotoxicity against human OVCAR4 assessed as cell growth at high concentration
M14 = experiment: Cytotoxicity against human M14 assessed as cell growth at high concentration
SK-MEL-2 = experiment: Cytotoxicity against human SK-MEL-2 assessed as cell growth at high concentration
NCI-H522 = experiment: Cytotoxicity against human NCI-H522 assessed as cell growth at high concentration
CAKI-1 = experiment: Cytotoxicity against human Caki1 assessed as cell growth at high concentration
[2] = Cytotoxicity against human NCI-ADR-RES assessed as cell growth at high concentration
Aspergillus niger [3] = experiment: Antifungal activity against Aspergillus niger MTCC 282 at 250 ug/ml after 74 hrs by Kirby-Bauer method; conditions: MTCC 282, 74 h, read-out: IZ
786-0 = experiment: Cytotoxicity against human 786-0 assessed as cell growth at high concentration
SF-539 = experiment: Cytotoxicity against human SF539 assessed as cell growth at high concentration
UACC-257 = experiment: Cytotoxicity against human UACC257 assessed as cell growth at high concentration
HCC 2998 = experiment: Cytotoxicity against human HCC2998 assessed as cell growth at high concentration
CCRF-CEM = experiment: Cytotoxicity against human CCRF-CEM assessed as cell growth at high concentration
Aspergillus clavatus [4] = experiment: Antifungal activity against Aspergillus clavatus MTCC 1323 at 250 ug/ml after 74 hrs by Kirby-Bauer method; conditions: MTCC 1323, 74 h, read-out: IZ
A549 = experiment: Cytotoxicity against human A549 assessed as cell growth at high concentration
HCT-15 = experiment: Cytotoxicity against human HCT15 assessed as cell growth at high concentration
EKVX = experiment: Cytotoxicity against human EKVX assessed as cell growth at high concentration
IGROV-1 = experiment: Cytotoxicity against human IGROV1 assessed as cell growth at high concentration
A498 = experiment: Cytotoxicity against human A498 assessed as cell growth at high concentration
Pseudomonas aeruginosa [5] = experiment: Antibacterial activity against Pseudomonas aeruginosa MTCC 424 at 250 ug/ml after 24 hrs by Kirby-Bauer method; conditions: MTCC 424, 24 h, read-out: IZ
RPMI-8226 = experiment: Cytotoxicity against human RPMI8226 assessed as cell growth at high concentration
SK-OV-3 = experiment: Cytotoxicity against human SKOV3 assessed as cell growth at high concentration
NCI-H322M = experiment: Cytotoxicity against human NCI-H322M assessed as cell growth at high concentration
MCF7 = experiment: Cytotoxicity against human MCF7 assessed as cell growth at high concentration
SNB-75 = experiment: Cytotoxicity against human SNB75 assessed as cell growth at high concentration
OVCAR-8 = experiment: Cytotoxicity against human OVCAR8 assessed as cell growth at high concentration
Aspergillus niger [6] = experiment: Antifungal activity against Aspergillus niger MTCC 282
LOX IMVI = experiment: Cytotoxicity against human LOXIMVI assessed as cell growth at high concentration
K562 = experiment: Cytotoxicity against human K562 assessed as cell growth at high concentration
KM12 = experiment: Cytotoxicity against human KM12 assessed as cell growth at high concentration
TK-10 = experiment: Cytotoxicity against human TK10 assessed as cell growth at high concentration
Escherichia coli [7] = experiment: Antibacterial activity against Escherichia coli MTCC 443 after 24 hrs by broth dilution method; conditions: MTCC 443, 24 h
Streptococcus pyogenes [8] = experiment: Antibacterial activity against Streptococcus pyogenes MTCC 442 after 24 hrs by broth dilution method; conditions: MTCC 442, 24 h
MOLT-4 = experiment: Cytotoxicity against human MOLT4 assessed as cell growth at high concentration
SF-295 = experiment: Cytotoxicity against human SF295 assessed as cell growth at high concentration
BT-549 = experiment: Cytotoxicity against human BT549 assessed as cell growth at high concentration
Candida albicans [9] = experiment: Antifungal activity against Candida albicans MTCC 227
SK-MEL-28 = experiment: Cytotoxicity against human SK-MEL-28 assessed as cell growth at high concentration
MDA-MB-435 = experiment: Cytotoxicity against human MDA-MB-435 assessed as cell growth at high concentration
OVCAR-3 = experiment: Cytotoxicity against human OVCAR3 assessed as cell growth at high concentration
PC-3 = experiment: Cytotoxicity against human PC3 assessed as cell growth at high concentration
UACC-62 = experiment: Cytotoxicity against human UACC62 assessed as cell growth at high concentration
MDA-MB-468 = experiment: Cytotoxicity against human MDA-MB-468 assessed as cell growth at high concentration
T47D = experiment: Cytotoxicity against human T47D assessed as cell growth at high concentration
SK-MEL-5 = experiment: Cytotoxicity against human SK-MEL-5 assessed as cell growth at high concentration
HL-60(TB) = experiment: Cytotoxicity against human HL-60(TB) assessed as cell growth at high concentration
Escherichia coli [10] = experiment: Antibacterial activity against Escherichia coli MTCC 443 at 250 ug/ml after 24 hrs by Kirby-Bauer method; conditions: MTCC 443, 24 h, read-out: IZ
HOP-62 = experiment: Cytotoxicity against human HOP62 assessed as cell growth at high concentration
SW-620 = experiment: Cytotoxicity against human SW620 assessed as cell growth at high concentration
SR = experiment: Cytotoxicity against human SR assessed as cell growth at high concentration
HCT-116 = experiment: Cytotoxicity against human HCT116 assessed as cell growth at high concentration
COLO 205 = experiment: Cytotoxicity against human COLO205 assessed as cell growth at high concentration
Pseudomonas aeruginosa [11] = experiment: Antibacterial activity against Pseudomonas aeruginosa MTCC 424 after 24 hrs by broth dilution method; conditions: MTCC 424, 24 h
Candida albicans [12] = experiment: Antifungal activity against Candida albicans MTCC 227 at 250 ug/ml after 74 hrs by Kirby-Bauer method; conditions: MTCC 227, 74 h, read-out: IZ
SF-268 = experiment: Cytotoxicity against human SF268 assessed as cell growth at high concentration
SNB-19 = experiment: Cytotoxicity against human SNB19 assessed as cell growth at high concentration
Staphylococcus aureus [13] = experiment: Antibacterial activity against Staphylococcus aureus MTCC 96 after 24 hrs by broth dilution method; conditions: MTCC 96, 24 h
MDA-MB-231 = experiment: Cytotoxicity against human MDA-MB-231 assessed as cell growth at high concentration
HT-29 = experiment: Cytotoxicity against human HT-29 assessed as cell growth at high concentration
SN12C = experiment: Cytotoxicity against human SN12C assessed as cell growth at high concentration
Hs-578T = experiment: Cytotoxicity against human Hs 578T assessed as cell growth at high concentration
Aspergillus clavatus [14] = experiment: Antifungal activity against Aspergillus clavatus MTCC 1323
Staphylococcus aureus [15] = experiment: Antibacterial activity against Staphylococcus aureus MTCC 96 at 250 ug/ml after 24 hrs by Kirby-Bauer method; conditions: MTCC 96, 24 h, read-out: IZ
NCI-H226 = experiment: Cytotoxicity against human NCI-H226 assessed as cell growth at high concentration

[O-]c1on[n+](-c2ccc(Cc3ccc(-[n+]4noc([O-])c4CN4CCOCC4)cc3)cc2)c1CN1CCOCC1
zone of inhibition at 250 µg/mL (Streptococcus pyogenes [1]): 19 mm | Activity (RXF 393): 72.21% | Activity (Malme-3M): 65.64% | Activity (NCI-H460): 82.89% | Activity (U-251): 62.81% | Activity (DU-145): 100.94% | Activity (NCI-H23): 62.15% | Activity (UO-31): 44.31% | Activity (OVCAR-4): 53.91% | Activity (M14): 69.54% | Activity (SK-MEL-2): 78.61% | Activity (NCI-H522): 36.96% | Activity (CAKI-1): 49.27% | Activity [2]: 63.42% | zone of inhibition at 250 µg/mL (Aspergillus niger [3]): 23 mm | Activity (786-0): 73.96% | Activity (SF-539): 77.5% | Activity (UACC-257): 75.14% | Activity (HCC 2998): 80.48% | Activity (CCRF-CEM): 63.93% | zone of inhibition at 250 µg/mL (Aspergillus clavatus [4]): 24 mm | Activity (A549): 69.06% | Activity (HCT-15): 78.57% | Activity (EKVX): 69.86% | Activity (IGROV-1): 62.3% | Activity (A498): 53.74% | zone of inhibition at 250 µg/mL (Pseudomonas aeruginosa [5]): 21 mm | Activity (RPMI-8226): 60.49% | Activity (SK-OV-3): 87.98% | Activity (NCI-H322M): 82.54% | Activity (MCF7): 45.59% | Activity (SNB-75): 72.63% | Activity (OVCAR-8): 80.93% | MIC (Aspergillus niger [6]): 250 µg/mL (≈ 468 µM) | Activity (LOX IMVI): 65.03% | Activity (K562): 26.39% | Activity (KM12): 54.32% | Activity (TK-10): 74.48% | MIC (Escherichia coli [7]): 250 µg/mL (≈ 468 µM) | MIC (Streptococcus pyogenes [8]): 250 µg/mL (≈ 468 µM) | Activity (MOLT-4): 68.41% | Activity (SF-295): 44.14% | Activity (BT-549): 60.72% | MIC (Candida albicans [9]): 500 µg/mL (≈ 935 µM) | Activity (SK-MEL-28): 74.89% | Activity (MDA-MB-435): 4.71% | Activity (OVCAR-3): 89.12% | Activity (PC-3): 56.45% | Activity (UACC-62): 53.38% | Activity (MDA-MB-468): 11.42% | Activity (T47D): 56.09% | Activity (SK-MEL-5): 53.16% | Activity (HL-60(TB)): 86.39% | zone of inhibition at 250 µg/mL (Escherichia coli [10]): 18 mm | Activity (HOP-62): 77% | Activity (SW-620): 67.72% | Activity (SR): 23.05% | Activity (HCT-116): 63.75% | Activity (COLO 205): 99.94% | MIC (Pseudomonas aeruginosa [11]): 125 µg/mL (≈ 234 µM) | zone of inhibition at 250 µg/mL (Candida albicans [12]): 23 mm | Activity (SF-268): 78.33% | Activity (SNB-19): 86.48% | MIC (Staphylococcus aureus [13]): 100 µg/mL (≈ 187 µM) | Activity (MDA-MB-231): 60.45% | Activity (HT-29): 89.7% | Activity (SN12C): 80.32% | Activity (Hs-578T): 64.02% | MIC (Aspergillus clavatus [14]): 500 µg/mL (≈ 935 µM) | zone of inhibition at 250 µg/mL (Staphylococcus aureus [15]): 21 mm | Activity (NCI-H226): 85.46%
